Measured values as given in patent publication US20210382039A1, “METHOD FOR ASSESSING THE ABILITY OF A SUBSTANCE OR OF A COMPOSITION TO PREVENT, SLOW OR ELIMINATE THE SIGNS OF AGEING OF THE SKIN OR OF THE LIPS” (SOCIETE D'EXPLOITATION DE PRODUITS POUR LES INDUSTRIES …, priority 2018, published 2021).

Legend:
[1] = test system: extracellular interleukin IL-6; test: Contagious aging (bystander effect) model: extracellular IL-6 by ELISA in R6 young fibroblasts treated with product, then MCR20 conditioned medium; type: cell-based, human; conditions: for Extracellular IL-6, N1i: R6 passage young human dermal fibroblasts, treated then placed in contact with MCR20 conditioned medium, compositions diluted in 1,3-propanediol to 0.1% by mass
Method: This method uses a specific antibody for human IL-6 attached to the bottom of the wells of a measuring plate. The samples to be assayed are added to the wells and the IL-6 present in the samples binds to the immobilized antibody. The wells are then washed and another biotinylated anti-human IL-6 antibody is added.
The wells are once again rinsed to remove the nonbound antibody, and streptavidin conjugated to the enzyme HRP (horseradish peroxidase) is added to the wells. The wells are once again rinsed and the HRP substrate tetramethylbenzidine is added to the wells.
The intensity of the color develops proportionately to the amount of IL-6 bound. The “stop” solution changes the color from blue to yellow, and the color intensity is measured at 450 nm by spectrophotometry. The IL-6 concentration is calculated by referring to a calibration range.
The particular process thus comprises the following steps: • Step i) of culturing of culturing human dermal fibroblasts, taken at the R19 passage in T25 flasks, • Step ii) of amplification of the cells obtained on conclusion of step i) to obtain a medium conditioned with senescent cells or “MC R20”. Amplification of the cells obtained on conclusion of step i) is performed by seeding said cells in Petri dishes at 0.3 M/Petri dish. After amplification for 4 days in Petri dishes, the culture medium of all the dishes was changed and then recovered after 48 hours of incubation. This recovered medium corresponds to the medium conditioned with senescent cells containing the SMS mediators (MCR20). • Step iii) of culturing human dermal fibroblasts, taken at the R5 passage in T25 flasks, • a step iv) of amplification of the cells obtained on conclusion of step iii) to obtain to obtain “young” or “R6” cells in the amplification phase, Steps iii) and iv) are performed in parallel with steps i) and ii).

[2] = test system: β-galactosidase; test: Contagious aging (bystander effect) model: β-galactosidase activity by X-gal staining in R6 young fibroblasts treated with product, then MCR20 conditioned medium; type: cell-based; conditions: R6 passage young human dermal fibroblasts, treated then placed in contact with MCR20 conditioned medium; compositions diluted in 1,3-propanediol to 0.1% by mass
Method: Measurement of the activity of the β-galactosidase enzyme is performed at the metabolic level, and even more particularly with a measurement involving colorimetric enzymatic detection.
Briefly, the β-galactosidase present in the cells reacts specifically with one of its substrates, X-gal (or 5-bromo-4-chloro-3-indolyl-β-D-galactopyranoside (C14H15BrClNO6)) which is deposited on the cell lawns. This substrate is a galactoside, a galactose heteroside, bonded to a substituted indole nucleus.
The particular process thus comprises the following steps: • Step i) of culturing of culturing human dermal fibroblasts, taken at the R19 passage in T25 flasks, • Step ii) of amplification of the cells obtained on conclusion of step i) to obtain a medium conditioned with senescent cells or “MC R20”. Amplification of the cells obtained on conclusion of step i) is performed by seeding said cells in Petri dishes at 0.3 M/Petri dish. After amplification for 4 days in Petri dishes, the culture medium of all the dishes was changed and then recovered after 48 hours of incubation. […]

Compound | Ratio R1=[(N10−N1i)×100]/[(N10−N1)] for extracellular IL-6 ([1]; N1 = 8.96 (untreated, unstressed), N10 = 41.38 (untreated, MCR20)) | Extracellular IL-6, N1i [1] | β-galactosidase, N2i [2]
OCCCO [1,3-propanediol] | R1 = 13.35 | N1i = 37.05 ± 2.57 pg/μg of proteins | N2i = 13.40 ± 2.69 number of “blue” positive cells/total number of cells
O=C1O[C@H]([C@@H](O)CO)C(O)=C1O [vitamin C, ascorbic acid, reference compound] | – | N1i = 27.31 ± 3.87 pg/μg of proteins | –
CC(=O)Oc1c(C)c(C)c2c(c1C)CC[C@@](C)(CCC[C@H](C)CCC[C@H](C)CCCC(C)C)O2 [vitamin E, D-α-tocopheryl acetate, reference compound] | – | – | N2i = 2.99 ± 0.45 number of “blue” positive cells/total number of cells
